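Test compounds were applied to cells in 96-well plates for 48 hours at 5 doses. Abbreviation: GI50, concentration required for 50% inhibition of growth.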 The source made the active and inactive calls. Cut-off read from the data, not from the text of the source: active = GI50 up to about 1.1 µM and inactive = higher.
Assays:
Test in all cases: inhibition of tumour cell growth, NCI panel, 48 h
HT-29 = test system: HT-29
RPMI-8226 = test system: RPMI-8226
PC-3 = test system: PC-3
MDA-MB-231 = test system: MDA-MB-231
MCF7 = test system: MCF7
Hs-578T = test system: Hs-578T
HL-60 = test system: HL-60
BT-549 = test system: BT-549
UACC-257 = test system: UACC-257
SF-295 = test system: SF-295
K562 = test system: K562
U-251 = test system: U-251
A549 = test system: A549
SNB-75 = test system: SNB-75
EKVX = test system: EKVX
OVCAR-3 = test system: OVCAR-3
RXF 393 = test system: RXF 393
NCI-H226 = test system: NCI-H226
NCI-H522 = test system: NCI-H522
Malme-3M = test system: Malme-3M

SMILES | GI50 (HT-29) | GI50 (RPMI-8226) | GI50 (PC-3) | GI50 (MDA-MB-231) | GI50 (MCF7) | GI50 (Hs-578T) | GI50 (HL-60) | GI50 (BT-549) | GI50 (UACC-257) | GI50 (SF-295) | GI50 (K562) | GI50 (U-251) | GI50 (A549) | GI50 (SNB-75) | GI50 (EKVX) | GI50 (OVCAR-3) | GI50 (RXF 393) | GI50 (NCI-H226) | GI50 (NCI-H522) | GI50 (Malme-3M)
c1ccc(-c2cc(-c3cccs3)c(-c3cccs3)o2)cc1 | > 100 µM (inactive) | > 100 µM (inactive) | > 100 µM (inactive) | > 100 µM (inactive) | 32.2 µM (inactive) | > 100 µM (inactive) | > 100 µM (inactive) | > 100 µM (inactive) | > 100 µM (inactive) | > 100 µM (inactive) | > 100 µM (inactive) | > 100 µM (inactive) | > 100 µM (inactive) | > 100 µM (inactive) | > 100 µM (inactive) | 61.1 µM (inactive) | > 100 µM (inactive) | > 100 µM (inactive) |  | 
CCOC(=O)CC1(O)CCCCC1(Sc1ccc(C)cc1)Sc1ccc(C)cc1 (stereo unspecified) | 32.2 µM (inactive) |  | 33.3 µM (inactive) | 77.4 µM (inactive) | 31.6 µM (inactive) | 25.4 µM (inactive) | 24.7 µM (inactive) | 83 µM (inactive) | 24.1 µM (inactive) | 41 µM (inactive) | 41.5 µM (inactive) | 33.7 µM (inactive) | 33.8 µM (inactive) | 27.5 µM (inactive) | 26.9 µM (inactive) | 55.5 µM (inactive) | 42.4 µM (inactive) | 34.4 µM (inactive) | 18.7 µM (inactive) | 30.5 µM (inactive)
CCOC(=O)c1c[nH]cc1-c1cn(S(=O)(=O)c2ccccc2)cc1C | 21.2 µM (inactive) |  | 18.6 µM (inactive) | 20.5 µM (inactive) | 29 µM (inactive) | 11.9 µM (inactive) | 26.2 µM (inactive) | 27.1 µM (inactive) | 17.1 µM (inactive) | 33.7 µM (inactive) | 19.1 µM (inactive) | 25.6 µM (inactive) | 30.5 µM (inactive) | 15.3 µM (inactive) | 14.6 µM (inactive) | 18.8 µM (inactive) | 47.1 µM (inactive) |  | 15.6 µM (inactive) | 15 µM (inactive)
Nc1ncnc2c1N=C(c1ccccc1)CC(c1ccccc1)N2 (stereo unspecified) | > 100 µM (inactive) | > 100 µM (inactive) | > 100 µM (inactive) | > 100 µM (inactive) | > 100 µM (inactive) | 39.4 µM (inactive) |  | > 100 µM (inactive) | > 100 µM (inactive) | > 100 µM (inactive) | > 100 µM (inactive) | > 100 µM (inactive) | > 100 µM (inactive) | 23.6 µM (inactive) | > 100 µM (inactive) | > 100 µM (inactive) | > 100 µM (inactive) | > 100 µM (inactive) | > 100 µM (inactive) | > 100 µM (inactive)
O=S(=O)(c1ccccc1)n1c(C(O)c2ccccc2)cc2ccccc21 (stereo unspecified) | 13.4 µM (inactive) | > 100 µM (inactive) | 15.7 µM (inactive) | 17.3 µM (inactive) | 21.2 µM (inactive) | 10.9 µM (inactive) | 11.4 µM (inactive) | 15.8 µM (inactive) | 16.2 µM (inactive) | 16.9 µM (inactive) | 49.4 µM (inactive) | 16.7 µM (inactive) | 14.5 µM (inactive) | 14.7 µM (inactive) | 17.4 µM (inactive) | 16.7 µM (inactive) | 14.3 µM (inactive) | 13.1 µM (inactive) |  | 18.3 µM (inactive)
C=C1[C@@H]2CCC3[C@]4(C)C(CC[C@@]5(C)C(=O)O[C@H](O)[C@@H]45)[C@H](O)[C@]3(C2)[C@H]1OC1OC(CO)C(O)C(O)C1O (stereo partly specified) | > 50 µM (inactive) | 8.81 µM (inactive) | > 50 µM (inactive) | > 50 µM (inactive) | > 50 µM (inactive) | > 50 µM (inactive) | > 50 µM (inactive) | > 50 µM (inactive) | > 50 µM (inactive) | > 50 µM (inactive) | 14.1 µM (inactive) | > 50 µM (inactive) | > 50 µM (inactive) | > 50 µM (inactive) | > 50 µM (inactive) | > 50 µM (inactive) | > 50 µM (inactive) | > 50 µM (inactive) |  | > 50 µM (inactive)
O=C(N/N=C/c1ccc2c(c1)OCO2)Nc1ccccc1Cl | 0.8 µM (active) | 1.48 µM (inactive) | 2.21 µM (inactive) | 4.7 µM (inactive) | 0.469 µM (active) | 1.66 µM (inactive) | 0.565 µM (active) | 1.85 µM (inactive) | 2.23 µM (inactive) | 0.47 µM (active) | 0.327 µM (active) | 2.68 µM (inactive) | 3.33 µM (inactive) |  | 8.07 µM (inactive) | 0.391 µM (active) | 1.57 µM (inactive) | 4.19 µM (inactive) | 0.233 µM (active) | 0.946 µM (active)
CC(C)(C)n1c(=O)n(-c2ccccc2)n(C(C)(C)C)c1=O | > 100 µM (inactive) |  | > 100 µM (inactive) | > 100 µM (inactive) | > 100 µM (inactive) | > 100 µM (inactive) | > 100 µM (inactive) | > 100 µM (inactive) | > 100 µM (inactive) | > 100 µM (inactive) | > 100 µM (inactive) | > 100 µM (inactive) | > 100 µM (inactive) | 63.1 µM (inactive) | > 100 µM (inactive) | > 100 µM (inactive) | > 100 µM (inactive) | > 100 µM (inactive) |  | > 100 µM (inactive)
COc1ccc(NCc2c(O)ccc3ccccc23)cc1 | 21.6 µM (inactive) | 24.7 µM (inactive) | 17.1 µM (inactive) | 30 µM (inactive) | 28.8 µM (inactive) | 60.5 µM (inactive) |  | 18.6 µM (inactive) | 18.4 µM (inactive) | 43 µM (inactive) | 10.7 µM (inactive) | 28.3 µM (inactive) | 61.4 µM (inactive) | > 100 µM (inactive) | 18.9 µM (inactive) | 27.2 µM (inactive) | 16.5 µM (inactive) |  | 14.8 µM (inactive) | 20.7 µM (inactive)
CSc1nncc2[nH]cnc12 | > 100 µM (inactive) | > 100 µM (inactive) | > 100 µM (inactive) | > 100 µM (inactive) | > 100 µM (inactive) | > 100 µM (inactive) | > 100 µM (inactive) | > 100 µM (inactive) | > 100 µM (inactive) | > 100 µM (inactive) | > 100 µM (inactive) | > 100 µM (inactive) | > 100 µM (inactive) | > 100 µM (inactive) | > 100 µM (inactive) | > 100 µM (inactive) | > 100 µM (inactive) | > 100 µM (inactive) |  | 
COc1ccc(OC)c(C(Cc2ccnc3ccccc23)Cc2ccnc3ccccc23)c1 | 6.5 µM (inactive) | 5.18 µM (inactive) | 5.28 µM (inactive) | > 10 µM (inactive) | 4.93 µM (inactive) | 8.63 µM (inactive) |  | 4.09 µM (inactive) | > 10 µM (inactive) | 6.71 µM (inactive) | 4.53 µM (inactive) | > 10 µM (inactive) | > 10 µM (inactive) | 6.11 µM (inactive) | 5.15 µM (inactive) | > 10 µM (inactive) | > 10 µM (inactive) | 9.57 µM (inactive) | 6.32 µM (inactive) | 
CSc1cc(-c2cccs2)sc1-c1cc(SC)c(-c2sc(-c3sc(-c4cccs4)cc3SC)cc2SC)s1 | > 100 µM (inactive) | > 100 µM (inactive) | > 100 µM (inactive) | > 100 µM (inactive) | > 100 µM (inactive) | > 100 µM (inactive) | > 100 µM (inactive) | > 100 µM (inactive) | > 100 µM (inactive) | > 100 µM (inactive) | > 100 µM (inactive) | > 100 µM (inactive) | > 100 µM (inactive) |  | > 100 µM (inactive) | > 100 µM (inactive) | > 100 µM (inactive) |  | > 100 µM (inactive) | > 100 µM (inactive)
C/C=C(\C)c1cc(=O)c2c(C)cc3c(c2o1)C(OC)(OC(C)=O)c1c(O)c(C2CC(C)(N(C)C)C(OC(C)=O)C(C)O2)cc(C2CC(N(C)C)C(OC(C)=O)C(C)O2)c1C3=O (stereo unspecified) | 0.489 µM (active) |  | 1.16 µM (inactive) | 0.178 µM (active) | 1.64 µM (inactive) | 1.16 µM (inactive) |  | 2.27 µM (inactive) | 1.55 µM (inactive) | 0.942 µM (active) | 0.239 µM (active) | 0.914 µM (active) | 0.514 µM (active) | 1.69 µM (inactive) | 1.07 µM (active) | 2.28 µM (inactive) | 1.37 µM (inactive) | 1.34 µM (inactive) | 0.254 µM (active) | 0.544 µM (active)
CN(Nc1cc(=O)[nH]c(=O)[nH]1)c1ccccc1 | > 100 µM (inactive) | > 100 µM (inactive) | > 100 µM (inactive) | > 100 µM (inactive) | > 100 µM (inactive) | 52 µM (inactive) | > 100 µM (inactive) | > 100 µM (inactive) | > 100 µM (inactive) | > 100 µM (inactive) | > 100 µM (inactive) | > 100 µM (inactive) | > 100 µM (inactive) | 58.9 µM (inactive) | > 100 µM (inactive) | > 100 µM (inactive) | > 100 µM (inactive) | > 100 µM (inactive) |  | > 100 µM (inactive)
CCCCCCCC/C=C\CCCCCCCC(=O)OC[C@]1(CO)CCC(=O)O1 | > 100 µM (inactive) |  | > 100 µM (inactive) | > 100 µM (inactive) | > 100 µM (inactive) | > 100 µM (inactive) |  | > 100 µM (inactive) | > 100 µM (inactive) | > 100 µM (inactive) | > 100 µM (inactive) | > 100 µM (inactive) | > 100 µM (inactive) | > 100 µM (inactive) | > 100 µM (inactive) | > 100 µM (inactive) | > 100 µM (inactive) | > 100 µM (inactive) | > 100 µM (inactive) | > 100 µM (inactive)

From ChEMBL document CHEMBL1201862, “PubChem BioAssay data set” (2004)
